# Laboratory results from patent US20240158348A1, “HERBICIDAL CYCLIC AMIDES N-SUBSTITUTED WITH A HALOALKYLSULFONYLANILIDE GROUP” (FMC Corporation, priority 2021, published 2024).
# Legend:
# Assay type in all cases: in vivo
# soybean (Glycine max) = experiment: Test C postemergence, soybean; details: visual injury, 0 to 100 scale (0 no effect, 100 complete control)
# [1] = tested on: goosegrass (Eleusine indica); experiment: Test C postemergence, goosegrass; details: for Goosegrass plant response rating: visual injury, 0 to 100 scale (0 no effect, 100 complete control)
# Method in brief: (§1)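 Pre: soil sprayed at seeding. Post: seedlings treated at 1–2 leaves (2–10 cm). Vehicle non-phytotoxic solvent mix with surfactant; loam–sand medium; greenhouse; visual injury read at 10 or 12 days, scale 0–100.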
# kochia (Bassia scoparia) = experiment: Test C postemergence, kochia; details: for Kochia plant response rating: visual injury, 0 to 100 scale (0 no effect, 100 complete control)
# Method in brief: as §1
# [2] = tested on: foxtail, giant (giant foxtail, Setaria faberi); experiment: Test C preemergence, giant foxtail; details: 0 is no effect, 100 is complete control
# Method in brief: as §1
# [3] = tested on: pigweed, palmer (palmer amaranth, Amaranthus palmeri); experiment: Test C postemergence, palmer amaranth; details: visual injury, 0 to 100 scale (0 no effect, 100 complete control)
# Method in brief: as §1
# [4] = tested on: ryegrass, Italian (Italian ryegrass, Lolium multiflorum); experiment: Test C postemergence, Italian ryegrass; details: visual injury, 0 to 100 scale (0 no effect, 100 complete control)
# Method in brief: as §1
# corn (Zea mays) = experiment: Test C preemergence, corn; details: 0 is no effect, 100 is complete control
# Method in brief: as §1
# [5] = 125 g ai/ha Postemergence, 0 is no effect, 100 is complete control
SMILES,Soybean plant response rating (soybean (Glycine max); 31 g ai/ha Postemergence),Soybean plant response rating (soybean (Glycine max); 125 g ai/ha Postemergence),Goosegrass plant response rating ([1]; 31 g ai/ha Postemergence),"Plant response rating (0 to 100 scale), Goosegrass [1, 5]",Kochia plant response rating (kochia (Bassia scoparia); 31 g ai/ha Postemergence),"Plant response rating (0 to 100 scale), Kochia (kochia (Bassia scoparia); [5])","Plant response rating (0 to 100 scale), Foxtail, Giant ([2]; 31 g ai/ha Preemergence)","Plant response rating (0 to 100 scale), Foxtail, Giant ([2]; 125 g ai/ha Preemergence)","Pigweed, Palmer plant response rating ([3]; 31 g ai/ha Postemergence)","Pigweed, Palmer plant response rating ([3]; 125 g ai/ha Postemergence)","Ryegrass, Italian plant response rating ([4]; 31 g ai/ha Postemergence)","Ryegrass, Italian plant response rating ([4]; 125 g ai/ha Postemergence)","Plant response rating (0 to 100 scale), Corn (corn (Zea mays); 31 g ai/ha Preemergence)","Plant response rating (0 to 100 scale), Corn (corn (Zea mays); 125 g ai/ha Preemergence)",Goosegrass plant response rating ([1]; 125 g ai/ha Postemergence),Kochia plant response rating (kochia (Bassia scoparia); 125 g ai/ha Postemergence)
COC(=O)N(c1cc(N2CCC(OC3CC3)C2=O)c(C)cc1Cl)S(=O)(=O)C(F)(F)F (stereo not drawn) [Compound 40],70,80,50,90,70,90,100,100,30,90,60,80,50,90,–,–
Cc1cc(C)c(N2CCC(OCC3CC3(F)F)C2=O)cc1NS(=O)(=O)C(F)(F)F (stereo not drawn) [Compound 41],90,90,90,–,70,–,100,100,50,90,30,100,90,100,90,80
Cc1cc(C)c(N2CCC(OCC3CCCO3)C2=O)cc1NS(=O)(=O)C(F)(F)F (stereo not drawn) [Compound 42],70,80,40,–,10,–,20,100,50,70,20,70,0,70,90,60
Cc1cc(C)c(N2CCC(OCC3CCC3)C2=O)cc1NS(=O)(=O)C(F)(F)F (stereo not drawn) [Compound 43],80,90,20,–,20,–,30,100,40,90,30,70,40,100,90,60
Cc1c(NS(=O)(=O)C(F)(F)F)cc(N2CCC(OC3CCC3)C2=O)c(C)c1C (stereo not drawn) [Compound 45],80,100,70,–,70,–,100,100,70,90,0,50,90,100,90,100
Cc1c(NS(=O)(=O)C(F)(F)F)cc(N2CCC(OC3CC3)C2=O)c(C)c1C (stereo not drawn) [Compound 47],70,90,50,–,40,–,100,100,30,70,50,90,30,90,90,80
